# Key:
# BT-474 [1] = experiment: normalised viability (% of control), CellTiter-Blue; higher = more viable cells (100 = DMSO, 0 = benzethonium chloride kill control); conditions: incubation time: 72 h
# Experimental: (§1)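 DSRT, CellTiter-Blue viability, 72 h incubation. Signal is normalised to DMSO and benzethonium chloride controls. Value is the normalised response at dose 1.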
# BT-549 [2] = experiment: as above; conditions: incubation time: 72 h
# Experimental: as §1
# CAL-120 [3] = experiment: as above; conditions: incubation time: 72 h
# Experimental: as §1
# CAL-148 [4] = experiment: as above; conditions: incubation time: 72 h
# Experimental: as §1
# CAL-51 [5] = experiment: as above; conditions: incubation time: 72 h
# Experimental: as §1
# CAL-85-1 [6] = experiment: as above; conditions: incubation time: 72 h
# Experimental: as §1
# DU-4475 [7] = experiment: as above; conditions: incubation time: 72 h
# Experimental: as §1
# HCC1143 [8] = experiment: as above; conditions: incubation time: 72 h
# Experimental: as §1
# HCC1599 [9] = experiment: as above; conditions: incubation time: 72 h
# Experimental: as §1
# HCC1937 [10] = experiment: as above; conditions: incubation time: 72 h
# Experimental: as §1
# HDQ-P1 [11] = experiment: as above; conditions: incubation time: 72 h
# Experimental: as §1
# Hs578T [12] = experiment: as above; conditions: incubation time: 72 h
# Experimental: as §1
# MDA-MB-231 [13] = experiment: as above; conditions: incubation time: 72 h
# Experimental: as §1
# MDA-MB-436 [14] = experiment: as above; conditions: incubation time: 72 h
# Experimental: as §1
# MDA-MB-453 [15] = experiment: as above; conditions: incubation time: 72 h
# Experimental: as §1
# MDA-MB-468 [16] = experiment: as above; conditions: incubation time: 72 h
# Experimental: as §1
# MFM-223 [17] = experiment: as above; conditions: incubation time: 72 h
# Experimental: as §1
# SK-BR-3 [18] = experiment: as above; conditions: incubation time: 72 h
# Experimental: as §1
# BT-474 [19] = experiment: normalised viability (% of control), CellTiter-Blue; higher = more viable cells (about 100 = DMSO control); conditions: 50 nM; incubation time: 72 h
# Experimental: (§2)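 DSRT, CellTiter-Blue viability, 72 h incubation. Signal is normalised to DMSO and benzethonium chloride controls. Value is the normalised response at dose 3.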
# BT-549 [20] = experiment: as above; conditions: 50 nM; incubation time: 72 h
# Experimental: as §2
# CAL-120 [21] = experiment: as above; conditions: 50 nM; incubation time: 72 h
# Experimental: as §2
# CAL-148 [22] = experiment: as above; conditions: 5 nM; incubation time: 72 h
# Experimental: as §2
# CAL-51 [23] = experiment: as above; conditions: 5 nM; incubation time: 72 h
# Experimental: as §2
# CAL-85-1 [24] = experiment: as above; conditions: 5 nM; incubation time: 72 h
# Experimental: as §2
# DU-4475 [25] = experiment: as above; conditions: 5 nM; incubation time: 72 h
# Experimental: as §2
# HCC1143 [26] = experiment: as above; conditions: 50 nM; incubation time: 72 h
# Experimental: as §2
# HCC1599 [27] = experiment: as above; conditions: 50 nM; incubation time: 72 h
# Experimental: as §2
# HCC1937 [28] = experiment: as above; conditions: 50 nM; incubation time: 72 h
# Experimental: as §2
# HDQ-P1 [29] = experiment: as above; conditions: 5 nM; incubation time: 72 h
# Experimental: as §2
# Hs578T [30] = experiment: as above; conditions: 50 nM; incubation time: 72 h
# Experimental: as §2
# MDA-MB-231 [31] = experiment: as above; conditions: 50 nM; incubation time: 72 h
# Experimental: as §2
# MDA-MB-436 [32] = experiment: as above; conditions: 50 nM; incubation time: 72 h
# Experimental: as §2
# MDA-MB-453 [33] = experiment: as above; conditions: 5 nM; incubation time: 72 h
# Experimental: as §2
# MDA-MB-468 [34] = experiment: as above; conditions: 50 nM; incubation time: 72 h
# Experimental: as §2
# MFM-223 [35] = experiment: as above; conditions: 50 nM; incubation time: 72 h
# Experimental: as §2
# SK-BR-3 [36] = experiment: as above; conditions: 50 nM; incubation time: 72 h
# Experimental: as §2
# BT-474 [37] = experiment: normalised viability (% of control), CellTiter-Blue; higher = more viable cells (about 100 = DMSO control); conditions: incubation time: 72 h
# In short: (§3)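 Each entry is normalised viability at a single listed concentration within a series. It comes from breast cancer cell lines incubated 72 h with compound in 384-well plates, then measured with CellTiter-Blue fluorescence at 560/590 nm. Every plate was normalised between vehicle (100) and a positive kill control (0).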
# BT-549 [38] = experiment: as above; conditions: incubation time: 72 h
# In short: as §3
# CAL-120 [39] = experiment: as above; conditions: incubation time: 72 h
# In short: as §3
# CAL-148 [40] = experiment: as above; conditions: incubation time: 72 h
# In short: as §3
# CAL-51 [41] = experiment: as above; conditions: incubation time: 72 h
# In short: as §3
# CAL-85-1 [42] = experiment: as above; conditions: incubation time: 72 h
# In short: as §3
# DU-4475 [43] = experiment: as above; conditions: incubation time: 72 h
# In short: as §3
# HCC1143 [44] = experiment: as above; conditions: incubation time: 72 h
# In short: as §3
# HCC1599 [45] = experiment: as above; conditions: incubation time: 72 h
# In short: as §3
# HCC1937 [46] = experiment: as above; conditions: incubation time: 72 h
# In short: as §3
# HDQ-P1 [47] = experiment: as above; conditions: incubation time: 72 h
# In short: as §3
# Hs578T [48] = experiment: as above; conditions: incubation time: 72 h
# In short: as §3
# MDA-MB-231 [49] = experiment: as above; conditions: incubation time: 72 h
# In short: as §3
# MDA-MB-436 [50] = experiment: as above; conditions: incubation time: 72 h
# In short: as §3
# MDA-MB-453 [51] = experiment: as above; conditions: incubation time: 72 h
# In short: as §3
# MDA-MB-468 [52] = experiment: as above; conditions: incubation time: 72 h
# In short: as §3
# MFM-223 [53] = experiment: as above; conditions: incubation time: 72 h
# In short: as §3
# SK-BR-3 [54] = experiment: as above; conditions: incubation time: 72 h
# In short: as §3
compound,measurement,setting,value
COc1cc(Nc2ncc(F)c(Nc3ccc4c(n3)NC(=O)C(C)(C)O4)n2)cc(OC)c1OC [R406] (1 nM),normalised viability,BT-474 [1],117%
same,normalised viability,BT-549 [2],97%
same,normalised viability,CAL-120 [3],83.5%
same,normalised viability,CAL-148 [4],110%
same,normalised viability,CAL-51 [5],106%
same,normalised viability,CAL-85-1 [6],84.8%
same,normalised viability,DU-4475 [7],112%
same,normalised viability,HCC1143 [8],91.6%
same,normalised viability,HCC1599 [9],101%
same,normalised viability,HCC1937 [10],91.6%
same,normalised viability,HDQ-P1 [11],116%
same,normalised viability,Hs578T [12],116%
same,normalised viability,MDA-MB-231 [13],95.7%
same,normalised viability,MDA-MB-436 [14],92.1%
same,normalised viability,MDA-MB-453 [15],106%
same,normalised viability,MDA-MB-468 [16],94.1%
same,normalised viability,MFM-223 [17],93.3%
same,normalised viability,SK-BR-3 [18],102%
CC[C@@]1(O)C(=O)OCc2c1cc1n(c2=O)Cc2cc3ccccc3nc2-1 [Camptothecin],normalised viability,BT-474 [19],90.8%
same,normalised viability,BT-549 [20],67.3%
same,normalised viability,CAL-120 [21],65.5%
same,normalised viability,CAL-148 [22],70.3%
same,normalised viability,CAL-51 [23],99%
same,normalised viability,CAL-85-1 [24],93.7%
same,normalised viability,DU-4475 [25],82.2%
same,normalised viability,HCC1143 [26],50.9%
same,normalised viability,HCC1599 [27],90.2%
same,normalised viability,HCC1937 [28],45.8%
same,normalised viability,HDQ-P1 [29],99.4%
same,normalised viability,Hs578T [30],81.8%
same,normalised viability,MDA-MB-231 [31],78.9%
same,normalised viability,MDA-MB-436 [32],87.9%
same,normalised viability,MDA-MB-453 [33],103%
same,normalised viability,MDA-MB-468 [34],46.8%
same,normalised viability,MFM-223 [35],93.8%
same,normalised viability,SK-BR-3 [36],49.7%
same,normalised viability,BT-474 [37]; 5 nM,101%
same,normalised viability,BT-474 [37]; 500 nM,69.9%
same,normalised viability,BT-474 [37]; 5000 nM,60.3%
same,normalised viability,BT-549 [38]; 5 nM,82.1%
same,normalised viability,BT-549 [38]; 500 nM,39.3%
same,normalised viability,BT-549 [38]; 5000 nM,20.7%
same,normalised viability,CAL-120 [39]; 5 nM,81.5%
same,normalised viability,CAL-120 [39]; 500 nM,22.6%
same,normalised viability,CAL-120 [39]; 5000 nM,10.3%
same,normalised viability,CAL-148 [40]; 1.5 nM,102%
same,normalised viability,CAL-148 [40]; 15 nM,47.9%
same,normalised viability,CAL-148 [40]; 50 nM,30.9%
same,normalised viability,CAL-51 [41]; 1.5 nM,103%
same,normalised viability,CAL-51 [41]; 15 nM,57%
same,normalised viability,CAL-51 [41]; 50 nM,31.1%
same,normalised viability,CAL-85-1 [42]; 1.5 nM,98%
same,normalised viability,CAL-85-1 [42]; 15 nM,87.3%
same,normalised viability,CAL-85-1 [42]; 50 nM,74.8%
same,normalised viability,DU-4475 [43]; 1.5 nM,117%
same,normalised viability,DU-4475 [43]; 15 nM,60.2%
same,normalised viability,DU-4475 [43]; 50 nM,44.7%
same,normalised viability,HCC1143 [44]; 5 nM,78.3%
same,normalised viability,HCC1143 [44]; 500 nM,33.5%
same,normalised viability,HCC1143 [44]; 5000 nM,22.9%
same,normalised viability,HCC1599 [45]; 5 nM,108%
same,normalised viability,HCC1599 [45]; 500 nM,60.1%
same,normalised viability,HCC1599 [45]; 5000 nM,29.5%
same,normalised viability,HCC1937 [46]; 5 nM,92.6%
same,normalised viability,HCC1937 [46]; 500 nM,29.6%
same,normalised viability,HCC1937 [46]; 5000 nM,25.5%
same,normalised viability,HDQ-P1 [47]; 1.5 nM,90.7%
same,normalised viability,HDQ-P1 [47]; 15 nM,83.2%
same,normalised viability,HDQ-P1 [47]; 50 nM,65.9%
same,normalised viability,Hs578T [48]; 5 nM,112%
same,normalised viability,Hs578T [48]; 500 nM,59.6%
same,normalised viability,Hs578T [48]; 5000 nM,11.5%
same,normalised viability,MDA-MB-231 [49]; 5 nM,98%
same,normalised viability,MDA-MB-231 [49]; 500 nM,51.8%
same,normalised viability,MDA-MB-231 [49]; 5000 nM,22.6%
same,normalised viability,MDA-MB-436 [50]; 5 nM,97%
same,normalised viability,MDA-MB-436 [50]; 500 nM,31.2%
same,normalised viability,MDA-MB-436 [50]; 5000 nM,10.3%
same,normalised viability,MDA-MB-453 [51]; 1.5 nM,114%
same,normalised viability,MDA-MB-453 [51]; 15 nM,105%
same,normalised viability,MDA-MB-453 [51]; 50 nM,77.4%
same,normalised viability,MDA-MB-468 [52]; 5 nM,93%
same,normalised viability,MDA-MB-468 [52]; 500 nM,12.1%
same,normalised viability,MDA-MB-468 [52]; 5000 nM,6.62%
same,normalised viability,MFM-223 [53]; 5 nM,108%
same,normalised viability,MFM-223 [53]; 500 nM,79.8%
same,normalised viability,MFM-223 [53]; 5000 nM,32.3%
same,normalised viability,SK-BR-3 [54]; 5 nM,100%
same,normalised viability,SK-BR-3 [54]; 500 nM,20.6%
same,normalised viability,SK-BR-3 [54]; 5000 nM,8%
c1ccc(C2CN3CCSC3=N2)cc1 (stereo not drawn) [Tetramisole] (1 nM),normalised viability,BT-474 [1],80.2%
same,normalised viability,BT-549 [2],97.8%
same,normalised viability,CAL-120 [3],118%
same,normalised viability,CAL-148 [4],117%
same,normalised viability,CAL-51 [5],91.6%
same,normalised viability,CAL-85-1 [6],96.5%
same,normalised viability,DU-4475 [7],83%
same,normalised viability,HCC1143 [8],107%
same,normalised viability,HCC1599 [9],95.3%
same,normalised viability,HCC1937 [10],94.3%
same,normalised viability,HDQ-P1 [11],126%
same,normalised viability,Hs578T [12],110%
same,normalised viability,MDA-MB-231 [13],99.2%
same,normalised viability,MDA-MB-436 [14],102%
same,normalised viability,MDA-MB-453 [15],106%
same,normalised viability,MDA-MB-468 [16],112%
same,normalised viability,MFM-223 [17],98.5%
same,normalised viability,SK-BR-3 [18],116%
